Laboratory results from patent US20250255856A1, “THERAPEUTIC COMPOSITIONS WITH IMINO SUGARS FOR THE TREATMENT OF DISEASES WITH ACCUMULATION OF HEPARAN SULFATE” (priority 2022, published 2025).
Structures can show the parent of a compound that is named as a salt.

Assays:
[1] = tested on: fibroblasts of patients affected by Sanfilippo A (MPS IIIA); assay: HS and Lamp1 immunofluorescence in Sanfilippo A patient fibroblasts; format: cell-based, human; details: 20 μM, 48 hours; for Effect on HS and lysosome (Lamp1) accumulation, in words: Sanfilippo A (MPS IIIA) patient fibroblasts
Excerpt: (§1) To verify whether the selected iminosugars could exert the same effects also on the fibroblasts of patients affected by Sanfilippo disease, human adult dermal fibroblasts HDFa (purchased from Sigma-Aldrich) were used as control, and fibroblasts of patients affected by Sanfilippo A and B (MPS IIIA and IIIB) were used as disease model.
(§2) The human cell lines, fibroblasts, from patients with MPS (Sanfilippo disease) used in the examples were obtained from the G. Gaslini Institute of Genoa, “Cell Line and DNA Biobank from Patients Affected by Genetic Diseases”-Telethon Genetic Biobank Network—Telethon research service. These cells are classified with identification codes and by type of disease without allowing patient identification. Cells were collected from the patients, at the Gaslini Institute, with informed consent to the collection extended to conservation and its possible use, for diagnosis and/or research purposes according to current legislation as required by the guidelines followed by the Telethon biobanks. The Network operates abiding by the Italian Privacy and Data Protection Laws in force, including: Italian Data Protection Authority, Personal Data Protection Code, Legislative Decree no. 196, 30 Jun. 2003, published in Official Gazette No. 174 of the Italian Republic, 29 Jul. 2003; Italian Data Protection Authority, General Authorization for the processing of genetic data, 24 Jun. 2011, published in Official Gazette No. 159 of Italian Republic, 11 Jul. 2011.
(§3) Cells were cultured in the presence of the selected L-iminosugars at a dosage of 20 μM and after 48 hours were treated for HS and Lamp1 immunofluorescence. Treatment with L-iminosugars had no effect on control HDFa (Table 3).
(§4) Cells were grown in the presence of the iminosugars D-DNJ, D-NBDNJ, D-AMPDNM and D-MONDNJ at the dosage of 20 μM and after 48 hours were treated for HS and Lamp1 immunofluorescence. Treatment with D-iminosugars had no effect on HDFa and fibroblasts of patients affected by Sanfilippo A and B (MPS IIIA and MPS IIIB) both on HS and lysosome accumulation (Table 4).

[2] = tested on: human adult dermal fibroblasts HDFa; assay: HS and Lamp1 immunofluorescence in control fibroblasts HDFa; format: cell-based; details: 20 μM, 48 hours
Procedure: as §1, §3, §4

[3] = tested on: HeLa tumor epithelial cells; assay: HeLa cell proliferation assay; format: cell-based; details: after 48 hours
Procedure: Furthermore, treatment with the L-deoxyminosugars L-DNJ, L-NBDNJ, L-AMPDNM and L-MONDNJ caused a decrease of the number of HeLa cells after 48 hours as shown by the cell proliferation assay reported in Table 6.

[4] = tested on: NAGLU-silenced clone (cl5) of human neuroblastoma cell line SK-NBE; assay: Immunofluorescence against beta-amyloid peptide 1-42 in NAGLU-silenced SK-NBE clone; format: cell-based; details: 20 μM, 48 hours
Procedure: The clone (c15) stably silenced for NAGLU, the causative gene of MPS IIIB, is able to mimic the features of neurodegenerative diseases as it accumulates beta-amyloid fibers in the cytoplasm. In fact, Sanfilippo Syndrome is also defined as “childhood Alzheimer”.
The diseased clone (c15) was grown in the presence of L-DNJ, L-NBDNJ, L-AMPDNM and L-MONDNJ and the corresponding enantiomers D-DNJ, D-NBDNJ, D-AMPDNM and D-MONDNJ at a dosage of 20 μM and after 48 hours were processed by immunofluorescence against the beta-amyloid peptide 1-42. […] On contrary, treatment with the corresponding D-enantiomers has no effect on the reduction of the accumulation of amyloid fibers compared to the untreated clone (mock) (Table 7).

patients with MPS III = details: cited from earlier work
[5] = tested on: fibroblasts of patients affected by Sanfilippo B (MPS IIIB); assay: HS and Lamp1 immunofluorescence in Sanfilippo B patient fibroblasts; format: cell-based, human; details: 20 μM, 48 hours; for Effect on HS and lysosome (Lamp1) accumulation, in words: Sanfilippo B (MPS IIIB) patient fibroblasts
Excerpt: as §1, §2, §3, §4

[6] = tested on: HeLa tumor epithelial cells; assay: HS immunostaining in HeLa cells; format: cell-based; details: 48 hours
Procedure: To test whether treatment with the selected L-deoxyminosugars (L-DNJ, L-NBDNJ, L-AMPDNM and L-MONDNJ) could interfere with HS synthesis we selected a cell line not mutated for NAGLU and highly decorated by heparan sulfate on the cell membrane. For this purpose, HeLa tumor epithelial cells (purchased from ATCC) were cultured for 48 hours in the presence of the selected L-iminosugars and the amount of HS was evaluated by immunostaining.

[7] = tested on: control clone (WT) of human neuroblastoma cell line SK-NBE; assay: Heparan sulfate (HS) immunofluorescence in control (WT) SK-NBE clone; format: cell-based; details: 20 μM, 48 hours
[8] = tested on: NAGLU-silenced clone (cl5) of human neuroblastoma cell line SK-NBE; assay: Heparan sulfate (HS) immunofluorescence in NAGLU-silenced SK-NBE clone, Sanfilippo B model; format: cell-based; details: 48 hours; for Cells positive for HS (%) / Relative HS fluorescence intensity: cl5 clone, 20 μM; for Effect on HS staining / HS accumulation, in words: clone 5, 20 μM
Excerpt: (§5) To study the effects of the compounds on the lysosomal dysfunctions in a neuronal model of Sanfilippo B disease (MPS IIIB), we recently generated stable clones of the human neuroblastoma cell line SK-NBE silenced for the NAGLU gene causative of MPS IIIB [De Pasquale V, et al. (2021). Biochim Biophys Acta Mol Cell Res. 1868, 119113.]. Mimicking the features of Sanfilippo B disease, silencing of NAGLU causes accumulation of heparan sulfate and accumulation of lysosomes in the cytoplasm of stable SK-NBE clones compared to the control (WT) clone.
Clone 5 was grown in the presence of 20 μM of each L-iminosugar under normal growth conditions and after 48 hours the accumulation of heparan sulfate (HS) was evaluated by immunofluorescence staining for HS.

[9] = tested on: NAGLU-silenced clone (cl5) of human neuroblastoma cell line SK-NBE; assay: Lamp1 immunofluorescence (lysosomal accumulation) in NAGLU-silenced SK-NBE clone, Sanfilippo B model; format: cell-based; details: 48 hours; for Cells positive for Lamp1 (%) / Relative Lamp1 fluorescence intensity: cl5 clone, 20 μM; for Effect on lysosomal enlargement and accumulation (lysosomal phenotype), in words: clone 5, 20 μM
Excerpt: as §5
(§6) Therefore, NAGLU-silenced clone (c15) and control clone (WT) were selected to test the effect of L-deoxyminosugars (L-DNJ, L-NBDNJ, L-NNDNJ, L-HPDNJ, L-NPDNJ, L-AMPDNM and L-MONDNJ) in the hydrochloride form on the lysosomal phenotype of our cell model of Sanfilippo B (MPS IIIB).
(§7) Clone 5 was cultured in the presence of 20 μM of each L-deoxyminosugar under normal growth conditions and after 48 hours the lysosomal accumulation was evaluated with immunofluorescence technique by using a specific antibody against Lamp1 (lysosomal marker). […] Furthermore, upon treatment with the active L-deoxyminosugar the lysosomes are no longer concentrated in the perinuclear region of the cells, as occurs in several lysosomal diseases, but they are physiologically distributed throughout the cytoplasm.

[10] = tested on: control clone (WT) of human neuroblastoma cell line SK-NBE; assay: Lamp1 immunofluorescence in control (WT) SK-NBE clone; format: cell-based; details: 20 μM, 48 hours
Excerpt: as §5, §6, §7

SMILES	Cell number [3]	Relative amyloid fluorescence intensity [4]	Relative fluorescence intensity compared to HDFa, HS ([1]; MPS-IIIA fibroblasts)	Relative fluorescence intensity compared to HDFa, Lamp1 ([1]; MPS-IIIA fibroblasts)	Effect on HS and lysosome (Lamp1) accumulation, in words [1]	Effect on HS accumulation on the HeLa cell membrane, in words [6]	Relative HS fluorescence intensity [6]	Relative fluorescence intensity compared to HDFa, HS [2]	Relative fluorescence intensity compared to HDFa, Lamp1 [2]	Cells positive for HS (%) [7]	Relative HS fluorescence intensity [7]	Effect on the number of HeLa cells, in words [3]	Cells positive for HS (%) [8]	Relative HS fluorescence intensity [8]	Effect on HS staining / HS accumulation, in words [8]	Cells positive for Lamp1 (%) [9]	Relative Lamp1 fluorescence intensity [9]	Effect on lysosomal enlargement and accumulation (lysosomal phenotype), in words [9]	Relative fluorescence intensity compared to HDFa, HS ([5]; MPS-IIIB fibroblasts)	Relative fluorescence intensity compared to HDFa, Lamp1 ([5]; MPS-IIIB fibroblasts)	other results
CCCCN1C[C@H](O)[C@@H](O)[C@H](O)[C@H]1CO [D-NBDNJ•HCl]	4.2 · 10^5	0.98	–	–	–	–	–	–	–	–	–	–	–	–	–	–	–	–	–	–	Cells positive for HS (%) ([1]; MPS-IIIA fibroblasts): 99.7%; Cells positive for Lamp1 (%) ([1]; MPS-IIIA fibroblasts): 94.7%; Cells positive for HS (%) [2]: 4.8%; Cells positive for Lamp1 (%) [2]: 5.0%; Clinical efficacy in MPS III patients, in words (patients with MPS III): no beneficial effects; Cells positive for HS (%) ([5]; MPS-IIIB fibroblasts): 95.2%; Cells positive for Lamp1 (%) ([5]; MPS-IIIB fibroblasts): 93.8%
OC[C@@H]1NC[C@@H](O)[C@H](O)[C@H]1O [L-DNJ•HCl]	2.9 · 10^5	0.01	1.0	1.8	strong reduction	strong reduction	0.24	1.0	1.0	2.6%	0.94	decrease	5.1%	1.20	dramatic reduction	25%	0.95	dramatic reduction	1.0	1.0	Effect on HS and lysosome (Lamp1) accumulation, in words [5]: strong reduction; Cells positive for Lamp1 (%) [10]: 2.8%; Relative Lamp1 fluorescence intensity [10]: 1.00
COCCCCCCCCCN1C[C@@H](O)[C@H](O)[C@@H](O)[C@@H]1CO [L-MONDNJ•HCl, N-methoxynonyl L-DNJ]	3.1 · 10^5	0.01	1.8	2.2	strong reduction	strong reduction	0.11	1.0	1.0	2.1%	0.97	decrease	4.9%	1.15	dramatic reduction	21%	1.00	dramatic reduction	1.7	1.3	Effect on HS and lysosome (Lamp1) accumulation, in words [5]: strong reduction; Cells positive for Lamp1 (%) [10]: 2.4%; Relative Lamp1 fluorescence intensity [10]: 1.05
CCCCN1C[C@@H](O)[C@H](O)[C@@H](O)[C@@H]1CO [L-NBDNJ•HCl, N-butyl-L-deoxynojirimycin]	3.6 · 10^5	0.01	1.7	1.9	strong reduction	strong reduction	0.26	1.0	1.0	2.5%	0.96	decrease	7.4%	1.13	dramatic reduction	20%	0.97	dramatic reduction	1.5	1.0	Effect on HS and lysosome (Lamp1) accumulation, in words [5]: strong reduction; Cells positive for Lamp1 (%) [10]: 2.6%; Relative Lamp1 fluorescence intensity [10]: 1.07
O=c1c(-c2ccc(O)cc2)coc2cc(O)cc(O)c12 [genistein]	–	–	–	–	–	–	–	–	–	–	–	–	–	–	–	–	–	–	–	–	Clinical efficacy in MPS III patients, in words (patients with MPS III): ineffective
